Data on one compound can be found in patent US20060205071A1, “Methods for ex-vivo expanding stem/progenitor cells” (priority 2003, published 2006).

Assay [1] has as its system cord-blood-derived, bone marrow-derived, and peripheral blood derived stem and progenitor cells. To be noted: grown without a feeder layer; cited from earlier work.
Assay [2] relates to Hematopoietic stem/progenitor cells isolated from umbilical cord blood. Put plainly: Ex vivo expansion of HSC with copper chelator in a gas permeable culture bag (static bioreactor). The class given is cell-based, human.
Procedure: Hematopoietic stem/progenitor cells isolated from umbilical cord blood (UCB) mononuclear cells by magnetic activated cell sorting (MACS technology, Milteny, Bergisch-Gladbach, GmbH) were seeded in static bioreactors (gas permeable culture bags) at concentrations of 1×10^4 cells/ml in MEM-alpha with 10% Fetal Calf Serum (FCS) containing 50 ng/ml of the following cytokines: SCF, TPO, Flt-3, IL-6, with (TEPA) or without (control) added copper chelator tetraethylenepentamine (TEPA, Aldrich, Milwaukee Wis., USA) (5 μM), and incubated for at least three weeks in a 5% CO2 humidified incubator. […] Cell Cultures of Human Hematopoietic Stem/Progenitor Cells: Human umbilical cord blood cells were obtained from umbilical cord blood after normal full-term delivery (informed consent was given). MPB, or BM were obtained from donations (informed consent was given). Samples were either used fresh or collected and frozen according to well known cord blood cryopreservation protocol (Rubinstein et al. 1995) within 24 h postpartum for UCB or according to common practice regarding MPB and BM. Prior to cryopreservation, blood was sedimented for 30 minutes on […] Starch (hydroxyethyl starch) to remove most RBC. Prior to their use, the cells were thawed in Dextran buffer (Sigma, St. Louis, Mo., USA) containing 2.5% human serum albumin (HSA) (Bayer Corp. Elkhart, Ind., USA) and processed as described herein below. Following thawing, where indicated, the leukocyte-rich fraction was harvested and layered on Ficoll-Hypaque gradient (1.077 g/mL; Sigma Inc, St Louis Mo., USA), and centrifuged at 400X g for 30 minutes. The mononuclear cell fraction in the interface layer was then collected, washed three times, and re-suspended in phosphate-buffered saline (PBS) (Biological Industries, Bet HaEmek, Israel) containing 0.5% human serum albumin (HSA) (Bayer Corp. Elkhart, Ind., USA). The CD133^+ cell fraction was purified as follows: Either the mononuclear cell fraction was subjected to two cycles of immuno-magnetic separation using the “MiniMACS CD133 stem cell isolation kit” (Miltenyi Biotec, Auburn, Calif.) or the unfractionated preparation was isolated on the CliniMACS device using CD133^+ CliniMACS (Miltenyi Biotec, Auburn, Calif.) reagent, accordingly, following the manufacturer's recommendations (in the latter, the Ficoll-Hypaque gradient stage was omitted). The purity of the CD133^+ population thus obtained was 80-95%, as evaluated by flow cytometry. […]
Assay [3] shares this test system. The experiment in a line: Long Term Culture-Colony Forming Cell (LTC-CFC) assay of bag-cultured HSC. It is filed as cell-based, human. On the procedure:
FIGS. 1A-1C are a graphic representation of the ex-vivo expansion and inhibition of differentiation of stem cells in a static bioreactor. Hematopoietic stem/progenitor cells isolated from umbilical cord blood (UCB) mononuclear cells by magnetic activated cell sorting (MACS technology, Milteny, Bergisch-Gladbach, GmbH) were seeded in static bioreactors (gas permeable culture bags) at concentrations of 1×10^4 cells/ml in MEM-alpha with 10% Fetal Calf Serum (FCS) containing 50 ng/ml of the following cytokines: SCF, TPO, Flt-3, IL-6, with (TEPA) or without (control) added copper chelator tetraethylenepentamine (TEPA, Aldrich, Milwaukee Wis., USA) (5 μM), and incubated for at least three weeks in a 5% CO2 humidified incubator. […] CFUc frequency was calculated as number of CFUc per number of cells.
Self-Renewal Potential Evaluations: The self-renewal potential of stem cells was determined in vitro by long-term colony formation. […] The resulting colonies were scored after two weeks of incubation at 37° C. in a humidified atmosphere of 5% CO2 in air. […]
Calculations: Ex vivo expansion of TNC, CD133, CD133+CD34− cells and CFUc are reported either as cumulative numbers; number of cells per ml multiply by the final culture volume, or as fold-expansion; cumulative numbers divided by initial seeding cell number. CFUc frequency is calculated as number of colonies divided by cell number. […]

[4] abbreviates: static bioreactor (VueLife FEP Teflon bag), compared with cells cultured without TEPA.

SMILES strings stand for the structures. Entries after “also recorded” stand apart in the source; their conditions may differ.

`NCCNCCNCCNCCN` [TEPA, tetraethylenepentamine]: in assay [1], the “fraction of CD34+ cell” value is “greatly enhanced” and the long-term clonability entry was “greatly enhanced”. Further, the “fold expansion of immature subpopulations of HSC (CD34+/CD38− and CD34+/lin−)” value in assay [2] (5 μM TEPA, three weeks, static bioreactor (culture bag), vs cytokines without TEPA) is “dramatically increases; also recorded: predominance of undifferentiated CD34^+/CD38^− and CD34^+/lin^−”. The “fraction of self-renewing, undifferentiated cells” value in assay [2] (short and long term culture in a static bioreactor, compared with cytokine-only cultures) is listed as “dramatically increased”. Also, the “population of ex-vivo cultured stem and/or progenitor cells” value in assay [2] (setting [4]) is given as “greatly expanded”. Moreover, the “LTC-CFC numbers (colonogenic potential, CFUs)” value in assay [3] (5 μM TEPA vs control cells grown with cytokines but not TEPA) is “at least one order of magnitude; also recorded: predominance of CFUs”. In assay [3] (setting [4]), the “functional characteristics (colonogenic potential)” value was “superior”.
